Marks after values point to notes of the source that are not given here.
Key:
[1] = system: black imported fire ants, Solenopsis richteri Forel; assay: Multiple-choice digging bioassay, fire ant workers; format: in vivo
Protocol: (§1) The repellency of the two terpenoids, callicarpenal and intermedeol, against workers of red imported fire ants, Solenopsis invicta Buren, black imported fire ants, Solenopsis rickeri Forel, and a hybrid of these two species was evaluated using multiple-choice digging bioassays (Tables 9 & 10). […] Callicarpenal and intermedeol were compared with octanoic acid, a known fire ant repellant, at the 25.00 ppm level using two-choice digging bioassays (FIGS. 3 and 4).
(§2) Ants: Two Solenopsis invicta colonies were collected in Sharkey County, Mississippi, and two Solenopsis richteri colonies were collected in Granada County, Mississippi. Two colonies of the hybrid (S. invicta×S. richteri) colony were collected in Sunflower County, Mississippi. Fire ant mounds were shoveled and placed in 19-L plastic buckets. The inside wall of the bucket was then coated with baby powder (Cumberland Swan Holdings, Inc., Smyrna, Tenn.) to prevent ant escape. Following the water-drip method developed by Bank et al. (Banks, W. A., et al., Techniques for collecting, rearing, and handling imported fire ants, USDA SEA AATS-S-21 (1981)), ants were separated and then placed in a 44.5×60.0×13.0 cm plastic tray with inside walls coated with Fluon® (Ag Fluoropolymers, Chadds Ford, Pa.). Distilled water and 15% (w/v) sucrose water solution in separated test tubes which were plugged with cotton balls were placed in the trays. Heliocoverpa zea (Boddie) and tobacco budworm, Heliothis virescens (Fabricius) pupae were used as food sources. Inside each tray were one to three 14.0×2.0 cm Petri dishes with 1.0 cm of hardener dental plaster (Castone®; Dentsply International Inc. York, Pa.) on the bottom. Also, in the center of the Petri dish was a 5.0-cm diameter brood chamber. Two 8-mm access holes were made on the wall of the petri dish above the dental plaster. The Petri dish lid was painted black (1302 Gloss Black Spray Enamel, Louisville, Ky.)to block the light. All colonies were maintained at 22-25° C.
(§3) Fire ant workers dug and removed sand from the tube through the entry hole. The differences in the amount of removed sand among treated and control tubes were used to evaluate chemical repellency. Four 2 ml centrifuge tubes were mounted under a 14.0×2.3 cm Petri dish using glue (Arrow Fastener Co., inc., Saddle Brook, N.J.). Tubes were 5.0 cm away from the center of the Petri dish and at equal distance from each other. A 3-mm diameter access hole was drilled for each centrifuge tube, which went through the bottom of the Petri dish and the cap of the tube. The inner side of the Petri dish was coated with Fluon. Three concentrations of a test compound and one control were set up in each apparatus. Six concentrations, including […], 6.25, 12.50, and 25.00 ppm, were tested in two separated bioassays for each species and hybrid; however three more concentrations of callicarpenal, 50.00, 100.00, and […], were tested for S. invicta. Sand (Premium Play Sand, Plassein International, Longview, Tex.) was first sieved through a ™35 U.S.A. standard testing sieve (Thomas Scientific, Swedesboro, N.J.) and then washed with distilled water and dried at 350° C. for 12 h. A 3 ml dichloromethane solution of callicarpenal or intermedeol was mixed with 30 g sand in an aluminum pan. The sand was stirred every 2 min to facilitate the evaporation of the solvent under a fume hood. After dichloromethane evaporated (5 minutes), 1.92 ml distilled water was added and mixed with sand. Sand in the control tube was treated only with dichloromethane. In each tube a mean (±SD) 2.78 g (±0.06 g) wet sand was added. There was no open space inside the tube. Locations of each concentration were randomized. Fifty fire ant workers were introduced into the center of the Petri Dish. The experiment was conducted at 22±0.8° C. (mean±SD) temperature and 45.4%±11.87% relative humidity. After 24 h, sand in each vial was collected, dried at 150° C. for at least 4 hour, and weighed. […]

[2] = system: hybrid (S. invicta×S. richteri); assay: Multiple-choice digging bioassay, fire ant workers; format: in vivo
Protocol: as §1, §2, §3

[3] = system: red imported fire ants, Solenopsis invicta Buren; assay: Multiple-choice digging bioassay, fire ant workers; format: in vivo
Protocol: as §1, §2, §3

S. richteri = assay: Two-choice digging bioassay, head-to-head against octanoic acid; format: in vivo, Solenopsis richteri; conditions: 25.00 ppm; both S. richteri colonies; FIGS. 3 and 4
Protocol: as §1
(§4) Head-to-head comparison on repellency of callicarpenal and intermedeol against octanoic acid: The bioassay apparatus was similar as described above, except a smaller Petri dish (8.7×2.3 cm) was used and only two choices were presented: one was sand treated with callicarpenal or intermedeol and the other with octanoic acid. Two choices were opposite each other across the center of the Petri dish and each was 3.0 cm away from the center. All compounds were tested at a 25.00 ppm level. Sand preparation was similar as described above. Ants from the same colonies as above were used in this experiment. There were five replications for each pair of comparisons. A paired t-test (critical P-value=0.05) was used to compare the mean amount of sand removed between two tubes.

[4] = system: hybrid (S. invicta×S. richteri); assay: as above; format: in vivo; conditions: 25.00 ppm, FIG. 3
Protocol: as §1, §4

CC1=CCC[C@@H]2[C@@](C)(CC=O)[C@H](C)CC[C@@]12C [callicarpenal, 13,14,15,16-tetranorclerod-3-en-12-al]
Sand removed (SE), mean weight of sand removed by ants 24 h after release ([1]; S. richteri colony 1, Exp. 7, 0.75 ppm): 0.40 (0.16) g
Sand removed (SE), mean weight of sand removed by ants 24 h after release ([1]; S. richteri colony 1, Exp. 7, 1.50 ppm): 0.28 (0.12) g
Sand removed (SE), mean weight of sand removed by ants 24 h after release ([1]; S. richteri colony 1, Exp. 7, 3.15 ppm): 0.21 (0.13) g
Sand removed (SE), mean weight of sand removed by ants 24 h after release ([1]; S. richteri colony 1, Exp. 8, 6.25 ppm): 0.10 (0.04)* g
Sand removed (SE), mean weight of sand removed by ants 24 h after release ([1]; S. richteri colony 1, Exp. 8, 12.50 ppm): 0.40 (0.17)* g
Sand removed (SE), mean weight of sand removed by ants 24 h after release ([1]; S. richteri colony 1, Exp. 8, 25.00 ppm): 0.08 (0.04)* g
Sand removed (SE), mean weight of sand removed by ants 24 h after release ([1]; S. richteri colony 2, Exp. 9, 0.75 ppm): 0.27 (0.16) g
Sand removed (SE), mean weight of sand removed by ants 24 h after release ([1]; S. richteri colony 2, Exp. 9, 1.50 ppm): 0.85 (0.22) g
Sand removed (SE), mean weight of sand removed by ants 24 h after release ([1]; S. richteri colony 2, Exp. 9, 3.15 ppm): 0.17 (0.11) g
Sand removed (SE), mean weight of sand removed by ants 24 h after release ([1]; S. richteri colony 2, Exp. 10, 6.25 ppm): 0.10 (0.04)* g
Sand removed (SE), mean weight of sand removed by ants 24 h after release ([1]; S. richteri colony 2, Exp. 10, 12.50 ppm): 0.10 (0.04)* g
Sand removed (SE), mean weight of sand removed by ants 24 h after release ([1]; S. richteri colony 2, Exp. 10, 25.00 ppm): 0.01 (0.002)* g
Sand removed (SE), mean weight of sand removed by ants 24 h after release ([2]; Hybrid colony 1, Exp. 11, 0.75 ppm): 0.66 (0.09) g
Sand removed (SE), mean weight of sand removed by ants 24 h after release ([2]; Hybrid colony 1, Exp. 11, 1.50 ppm): 0.59 (0.10) g
Sand removed (SE), mean weight of sand removed by ants 24 h after release ([2]; Hybrid colony 1, Exp. 11, 3.15 ppm): 0.30 (0.11) g
Sand removed (SE), mean weight of sand removed by ants 24 h after release ([2]; Hybrid colony 1, Exp. 12, 6.25 ppm): 0.53 (0.13)* g
Sand removed (SE), mean weight of sand removed by ants 24 h after release ([2]; Hybrid colony 1, Exp. 12, 12.50 ppm): 0.26 (0.05)* g
Sand removed (SE), mean weight of sand removed by ants 24 h after release ([2]; Hybrid colony 1, Exp. 12, 25.00 ppm): 0.39 (0.14)* g
Sand removed (SE), mean weight of sand removed by ants 24 h after release ([2]; Hybrid colony 2, Exp. 13, 0.75 ppm): 0.53 (0.14) g
Sand removed (SE), mean weight of sand removed by ants 24 h after release ([2]; Hybrid colony 2, Exp. 13, 1.50 ppm): 0.36 (0.09) g
Sand removed (SE), mean weight of sand removed by ants 24 h after release ([2]; Hybrid colony 2, Exp. 13, 3.15 ppm): 0.58 (0.12) g
Sand removed (SE), mean weight of sand removed by ants 24 h after release ([2]; Hybrid colony 2, Exp. 14, 6.25 ppm): 0.47 (0.09)* g
Sand removed (SE), mean weight of sand removed by ants 24 h after release ([2]; Hybrid colony 2, Exp. 14, 12.50 ppm): 0.30 (0.11)* g
Sand removed (SE), mean weight of sand removed by ants 24 h after release ([2]; Hybrid colony 2, Exp. 14, 25.00 ppm): 0.21 (0.11)* g
concentration at which significant repellency was shown ([2]; hybrid, two colonies, in sand, 24 h): ≥ 6.25 ppm
Sand removed (SE), mean weight of sand removed by ants 24 h after release ([3]; S. invicta colony 1, Exp. 1, 0.75 ppm): 0.19 (0.07) g
Sand removed (SE), mean weight of sand removed by ants 24 h after release ([3]; S. invicta colony 1, Exp. 1, 1.50 ppm): 0.24 (0.15) g
Sand removed (SE), mean weight of sand removed by ants 24 h after release ([3]; S. invicta colony 1, Exp. 1, 3.15 ppm): 0.40 (0.20) g
Sand removed (SE), mean weight of sand removed by ants 24 h after release ([3]; S. invicta colony 1, Exp. 2, 6.25 ppm): 0.21 (0.12) g
Sand removed (SE), mean weight of sand removed by ants 24 h after release ([3]; S. invicta colony 1, Exp. 2, 12.50 ppm): 0.48 (0.19) g
Sand removed (SE), mean weight of sand removed by ants 24 h after release ([3]; S. invicta colony 1, Exp. 2, 25.00 ppm): 0.08 (0.05) g
Sand removed (SE), mean weight of sand removed by ants 24 h after release ([3]; S. invicta colony 1, Exp. 3, 50.00 ppm): 0.04 (0.004)* g
Sand removed (SE), mean weight of sand removed by ants 24 h after release ([3]; S. invicta colony 1, Exp. 3, 100.00 ppm): 0.02 (0.008)* g
Sand removed (SE), mean weight of sand removed by ants 24 h after release ([3]; S. invicta colony 1, Exp. 3, 150.00 ppm): 0.03 (0.007)* g
Sand removed (SE), mean weight of sand removed by ants 24 h after release ([3]; S. invicta colony 2, Exp. 4, 0.75 ppm): 0.32 (0.16) g
Sand removed (SE), mean weight of sand removed by ants 24 h after release ([3]; S. invicta colony 2, Exp. 4, 1.50 ppm): 0.32 (0.15) g
Sand removed (SE), mean weight of sand removed by ants 24 h after release ([3]; S. invicta colony 2, Exp. 4, 3.15 ppm): 0.36 (0.11) g
Sand removed (SE), mean weight of sand removed by ants 24 h after release ([3]; S. invicta colony 2, Exp. 5, 6.25 ppm): 0.24 (0.21) g
Sand removed (SE), mean weight of sand removed by ants 24 h after release ([3]; S. invicta colony 2, Exp. 5, 12.50 ppm): 0.45 (0.18) g
Sand removed (SE), mean weight of sand removed by ants 24 h after release ([3]; S. invicta colony 2, Exp. 5, 25.00 ppm): 0.02 (0.01) g
Sand removed (SE), mean weight of sand removed by ants 24 h after release ([3]; S. invicta colony 2, Exp. 6, 50.00 ppm): 0.02 (0.007)* g
Sand removed (SE), mean weight of sand removed by ants 24 h after release ([3]; S. invicta colony 2, Exp. 6, 100.00 ppm): 0.08 (0.06)* g
Sand removed (SE), mean weight of sand removed by ants 24 h after release ([3]; S. invicta colony 2, Exp. 6, 150.00 ppm): 0.07 (0.03)* g
concentration at which significant repellency was shown ([3]; S. invicta, two colonies, in sand, 24 h): ≥ 50.00 ppm
repellency compared with octanoic acid (in words) (S. richteri): significantly greater repellency than octanoic acid
repellency compared with octanoic acid (in words) ([4]; one hybrid colony): significantly greater repellency than octanoic acid
repellency compared with octanoic acid (in words) ([4]; the other hybrid colony): no significant difference
